# Laboratory results taken from patent US6737383B1, “Herbicidal oxadiazolidines” (priority 1999, dated 2004).
# Columns and labels:
# bedstraw = assay: Test B pre/postemergence bedstraw; type: in vivo, Galium aparine
# Method in brief: (§1)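 Test chemicals in a non-phytotoxic solvent mixture with surfactant were sprayed preemergence onto planted seeds and postemergence onto plants 2 to 18 cm tall (1- to 4-leaf stage). After twelve to sixteen days in a greenhouse, injury was visually rated against untreated controls from 0 (no effect) to 10 (complete control).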
# blackgrass = assay: Test B pre/postemergence blackgrass; type: in vivo, Alopecurus myosuroides
# Method in brief: as §1
# surinam grass = assay: Test B pre/postemergence surinam grass; type: in vivo, Brachiaria decumbens
# Method in brief: as §1
# cocklebur = assay: Test B pre/postemergence cocklebur; type: in vivo, Xanthium strumarium
# Method in brief: as §1
# corn = assay: Test B pre/postemergence corn; type: in vivo, Zea mays
# Method in brief: as §1
# morningglory = assay: Test B pre/postemergence morningglory; type: in vivo, Ipomoea hederacea
# Method in brief: as §1
# pigweed = assay: Test B pre/postemergence pigweed; type: in vivo, Amaranthus retroflexus
# Method in brief: as §1
# rape = assay: Test B pre/postemergence rape; type: in vivo, Brassica napus
# Method in brief: as §1
# soybean = assay: Test B pre/postemergence soybean; type: in vivo, Glycine max
# Method in brief: as §1
# sugar beet = assay: Test B pre/postemergence sugar beet; type: in vivo, Beta vulgaris; conditions: for Plant response rating, Sugarbeets: Rate 250 g/ha
# Method in brief: as §1
# velvetleaf = assay: Test B pre/postemergence velvetleaf; type: in vivo, Abutilon theophrasti; conditions: for Plant response rating, Velvetleaf: Rate 250 g/ha
# Method in brief: as §1
# wild oat = assay: Test B pre/postemergence wild oat; type: in vivo, Avena fatua; conditions: for Plant response rating, Wild oats: Rate 250 g/ha
# Method in brief: as §1
# purple nutsedge = assay: Test B pre/postemergence purple nutsedge; type: in vivo, Cyperus rotundus
# Method in brief: as §1
# rice = assay: Test B flood test rice; type: in vivo, Oryza sativa
# Method in brief: (§2)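 Read-out is a visual response score from 0 (no effect) to 10 (complete control), assigned by comparison with untreated controls. Treatment was applied at the 2-leaf stage, and plants stayed in the greenhouse for twelve to sixteen days before scoring.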
# smallflower flatsedge = assay: Test B flood test smallflower flatsedge; type: in vivo, Cyperus difformis
# Method in brief: as §2
# bamyardgrass = assay: Test B flood test barnyardgrass; type: in vivo, Echinochloa crus-galli
# Method in brief: as §2
# [1] = Postemergence, Rate 62 g/ha, scale 0 to 10, 0 is no effect, 10 is complete control
# [2] = Postemergence, Rate 250 g/ha, scale 0 to 10, 0 no effect, 10 complete control
# [3] = Preemergence, Rate 62 g/ha, scale 0 to 10 (0 no effect, 10 complete control)
# [4] = Preemergence, Rate 125 g/ha, scale 0 to 10 (0 no effect, 10 complete control)
# [5] = Preemergence, Rate 250 g/ha, scale of 0 to 10 where 0 is no effect and 10 is complete control
# [6] = Rate 125 g/ha, Postemergence, scale 0 to 10, 0 no effect, 10 complete control
# [7] = Rate 500 g/ha, Postemergence, scale 0 to 10, 0 no effect, 10 complete control
# [8] = Postemergence, Rate 125 g/ha, scale of 0 to 10 where 0 is no effect and 10 is complete control
# [9] = Rate 62 g/ha, Postemergence, scale of 0 to 10 where 0 is no effect and 10 is complete control
# [10] = Rate 250 g/ha, Postemergence, scale 0 to 10, 0 is no effect, 10 is complete control
# [11] = Preemergence, Rate 125 g/ha, 0 is no effect, 10 is complete control
# [12] = Preemergence, scale of 0 to 10 where 0 is no effect and 10 is complete control
# [13] = Postemergence, scale 0 to 10, 0 is no effect, 10 is complete control
# [14] = Postemergence (flood test species), Rate 125 g/ha, scale of 0 to 10 where 0 is no effect and 10 is complete control
# [15] = Rate 62 g/ha, Postemergence section, flood test species, scale of 0 to 10 where 0 is no effect and 10 is complete control
# [16] = Rate 250 g/ha, Postemergence (flood test), scale 0 to 10, 0 is no effect, 10 is complete control
# [17] = Rate 500 g/ha, listed under Postemergence (flood test species), scale 0 to 10, 0 no effect, 10 complete control
compound,measurement,setting,value
CCc1noc(CC)c1-n1c(=O)on(C(=O)N(c2ccc(F)cc2)C(C)C)c1=O [Compound 102],Bedstraw plant response rating,bedstraw; [1],0
same,Bedstraw plant response rating,bedstraw; [2],0
same,Bedstraw plant response rating,bedstraw; [3],0
same,"Plant response rating, Bedstraw",bedstraw; [4],0
same,"Plant response rating, Bedstraw",bedstraw; [5],0
same,Bedstraw plant response rating,bedstraw; [6],0
same,Bedstraw plant response rating,bedstraw; [7],3
same,Blackgrass plant response rating,blackgrass; [8],0
same,Blackgrass plant response rating,blackgrass; [2],0
same,Blackgrass plant response rating,blackgrass; [3],0
same,"Plant response rating, Blackgrass",blackgrass; [4],0
same,"Plant response rating, Blackgrass",blackgrass; [5],2
same,Blackgrass plant response rating,blackgrass; [9],0
same,Blackgrass plant response rating,blackgrass; [7],0
same,B. signalgrass plant response rating,surinam grass; [1],0
same,B. signalgrass plant response rating,surinam grass; [2],0
same,B. signalgrass plant response rating,surinam grass; [3],0
same,"Plant response rating, B. signalgrass",surinam grass; [4],0
same,"Plant response rating, B. signalgrass",surinam grass; [5],0
same,B. signalgrass plant response rating,surinam grass; [6],0
same,B. signalgrass plant response rating,"surinam grass; Rate 500 g/ha, Postemergence, scale of 0 to 10 where 0 is no effect and 10 is complete control",0
same,Cocklebur plant response rating,cocklebur; [8],0
same,Cocklebur plant response rating,cocklebur; [2],0
same,Cocklebur plant response rating,cocklebur; [3],0
same,"Plant response rating, Cocklebur",cocklebur; [4],0
same,"Plant response rating, Cocklebur",cocklebur; [5],0
same,Cocklebur plant response rating,cocklebur; [9],0
same,Cocklebur plant response rating,cocklebur; [7],0
same,Corn plant response rating,corn; [8],0
same,Corn plant response rating,corn; [2],0
same,Corn plant response rating,corn; [3],0
same,"Plant response rating, Corn",corn; [4],0
same,"Plant response rating, Corn",corn; [5],0
same,Corn plant response rating,corn; [9],0
same,Corn plant response rating,corn; [7],2
same,Morningglory plant response rating,morningglory; [8],0
same,Morningglory plant response rating,morningglory; [2],1
same,Morningglory plant response rating,morningglory; [3],0
same,"Plant response rating, Morningglory",morningglory; [4],0
same,"Plant response rating, Morningglory",morningglory; [5],0
same,Morningglory plant response rating,morningglory; [9],0
same,Morningglory plant response rating,morningglory; [7],3
same,Redroot pigweed plant response rating,pigweed; [8],0
same,Redroot pigweed plant response rating,pigweed; [3],0
same,"Plant response rating, Redroot pigweed",pigweed; [4],0
same,"Plant response rating, Redroot pigweed",pigweed; [5],0
same,Redroot pigweed plant response rating,pigweed; [9],0
same,"Plant response rating, Redroot pigweed",pigweed; [10],0
same,Redroot pigweed plant response rating,pigweed; [7],0
same,Rape plant response rating,rape; [8],0
same,Rape plant response rating,rape; [2],0
same,Rape plant response rating,rape; [3],0
same,"Plant response rating, Rape",rape; [4],0
same,"Plant response rating, Rape",rape; [5],0
same,Rape plant response rating,rape; [9],0
same,Rape plant response rating,rape; [7],0
same,Soybean plant response rating,soybean; [8],0
same,Soybean plant response rating,soybean; [3],0
same,"Plant response rating, Soybean",soybean; [4],0
same,"Plant response rating, Soybean",soybean; [5],0
same,Soybean plant response rating,soybean; [9],0
same,"Plant response rating, Soybean",soybean; [10],0
same,Soybean plant response rating,soybean; [7],0
same,Sugarbeets plant response rating,sugar beet; [8],0
same,Sugarbeets plant response rating,sugar beet; [3],0
same,Sugarbeets plant response rating (0 to 10 scale),sugar beet; [11],0
same,"Plant response rating, Sugarbeets",sugar beet; [12],0
same,Sugarbeets plant response rating,sugar beet; [9],0
same,"Plant response rating, Sugarbeets",sugar beet; [13],0
same,Sugarbeets plant response rating,sugar beet; [7],0
same,Velvetleaf plant response rating,velvetleaf; [8],0
same,Velvetleaf plant response rating,velvetleaf; [3],0
same,Velvetleaf plant response rating (0 to 10 scale),velvetleaf; [11],0
same,"Plant response rating, Velvetleaf",velvetleaf; [12],0
same,Velvetleaf plant response rating,velvetleaf; [9],0
same,"Plant response rating, Velvetleaf",velvetleaf; [13],0
same,Velvetleaf plant response rating,velvetleaf; [7],3
same,Wild oats plant response rating,wild oat; [8],0
same,Wild oats plant response rating,wild oat; [3],0
same,Wild oats plant response rating (0 to 10 scale),wild oat; [11],0
same,"Plant response rating, Wild oats",wild oat; [12],0
same,Wild oats plant response rating,wild oat; [9],0
same,"Plant response rating, Wild oats",wild oat; [13],0
same,Wild oats plant response rating,wild oat; [7],0
same,Nutsedge plant response rating,purple nutsedge; [8],0
same,Nutsedge plant response rating,purple nutsedge; [2],0
same,Nutsedge plant response rating,purple nutsedge; [3],0
same,"Plant response rating, Nutsedge",purple nutsedge; [4],0
same,"Plant response rating, Nutsedge",purple nutsedge; [5],0
same,Nutsedge plant response rating,purple nutsedge; [9],0
same,Nutsedge plant response rating,purple nutsedge; [7],0
same,Rice plant response rating,rice; [14],0
same,Rice plant response rating,rice; [15],0
same,"Plant response rating, Rice",rice; [16],0
same,Rice plant response rating,rice; [17],0
same,S. Flatsedge plant response rating,smallflower flatsedge; [14],0
same,S. Flatsedge plant response rating,smallflower flatsedge; [15],0
same,"Plant response rating, S. Flatsedge",smallflower flatsedge; [16],0
same,S. Flatsedge plant response rating,smallflower flatsedge; [17],0
same,Barnyardgrass plant response rating,bamyardgrass; [1],0
same,Barnyardgrass plant response rating,"bamyardgrass; Rate 125 g/ha, Postemergence section (flood test species), scale 0 to 10, 0 no effect, 10 complete control",0
same,Barnyardgrass plant response rating,bamyardgrass; [17],0
same,Barnyardgrass plant response rating,"bamyardgrass; flood test, listed under Postemergence, Rate 250 g/ha, scale 0 to 10, 0 no effect, 10 complete control",0
